Experimental data: the NIST ThermoML archive (doi:10.1016/j.tca.2005.11.005)

Experiment: molar heat capacity at constant pressure; xn = mol fraction of the nth substance listed
Conditions: 101 kPa, Crystal, Small sample (50 mg) DSC

[O-2].[O-2].[U+4] [uranium dioxide] + [Ce+4].[O-2].[O-2]
x1 = 1
Conditions | molar heat capacity at constant pressure [J/K/mol]
298 K | 64
300 K | 64.1
400 K | 72.7
500 K | 77.5
600 K | 80.4
700 K | 82.6
800 K | 85.9

[Ce+4].[O-2].[O-2] [ceric oxide] + [O-2].[O-2].[U+4]
molar heat capacity at constant pressure [J/K/mol]
Conditions | 298 K | 300 K | 400 K | 500 K | 600 K | 700 K | 800 K
x2 = 0 | 62.6 | 62.7 | 68.8 | 73 | 76.5 | 78.6 | 79.3
x2 = 0.197 | 62.8 | 64 | 73.3 | 81.2 | 84.6 | 84.5 | 85.2
x2 = 0.491 | 64.2 | 64.8 | 76.8 | 85.9 | 89.2 | 89.6 | 88.3
x2 = 0.809 | 70.1 | 70.4 | 79.7 | 86 | 88.9 | 90.3 | 92
